Experimental data taken from patent publication US20130184316A1, “METHODS FOR DIAGNOSING AND TREATING CONCUSSIVE DISORDERS” (priority 2010, published 2013).

Assays:
[1] = test system: EA2 mutant Purkinje cells; conditions: literature (J. Neurosci. 2010), cited from earlier work
subject with PCS [2] = assay: California Verbal Learning Test II (CVLT); type: in vivo, human
Description: (§1) A single subject, prospective, double blind, placebo controlled trial of 4AP was then conducted in this individual. IRB approvals were obtained from all participating institutions and Subject gave written informed consent for all parts of the study. After a 4-week medication washout period, the Subject was randomly assigned a week's course of placebo, followed by a weeklong medication washout period, followed by another week on 4-AP (10 mg twice daily). Based on the medication half-life, a one week washout period was presumed to be sufficient. Subject and assessors were blinded to treatment allocation.
(§2) Measurements conducted at identical times at baseline and on each of the subsequent 3 weeks of the study included: • Balance and mobility assessed by Hi-Mat test (Arch. Phys. Med. Rehabil. 2006, 87(3), 437-442; hereby incorporated by reference in its entirety). • Subjective symptom assessment using the Rivermead Post-Concussion Questionnaire (Clin. Rehabil. 2005, 19(8), 878-887; hereby incorporated by reference in its entirety). • Neuropsychological assessment, consisting of the digit span and cancellation tests from the Wechsler Adult Intelligence Scale, 4th edition (Coalson, D. L., Engi-Raiford, S. Wechsler Adult Intelligence Scale, 4th Ed., in Technical and Interpretive Manual, 4th Ed., San Antonio: Pearson (2008); hereby incorporated by reference in its entirety), the California Verbal Learning Test II (CVLT) (Delis, D. C., Kramer, J. H., Kaplan, E., Ober, B. A. in CVLT-II Manual, San Antonio: The Psychological Corporation (2000); hereby incorporated by reference in its entirety), the Verbal Fluency Test (Connors Continuous Performance Test Computer II Program Version 5 Users Manual, Toronto: Multi-Health Systems, Inc. (2002); hereby incorporated by reference in its entirety), and the Connors Continuous Performance Test (J. Nervous Ment. Dis. 1985, 173(6), 353-357; hereby incorporated by reference in its entirety). • Videonystagmography (VNG) and rotary chair (RC) vestibular testing […]

downbeat nystagmus (DBN) = conditions: literature reports; cited from earlier work
subject with PCS [3] = assay: Videonystagmography (VNG); type: in vivo, human
Description: as §1
Measurements conducted at identical times at baseline and on each of the subsequent 3 weeks of the study included: • Balance and mobility assessed by Hi-Mat test (Arch. Phys. Med. Rehabil. 2006, 87(3), 437-442; hereby incorporated by reference in its entirety). • Subjective symptom assessment using the Rivermead Post-Concussion Questionnaire (Clin. Rehabil. 2005, 19(8), 878-887; hereby incorporated by reference in its entirety). • Neuropsychological assessment, consisting of the digit span and cancellation tests from the Wechsler Adult Intelligence Scale, 4th edition (Coalson, D. L., Engi-Raiford, S. Wechsler Adult Intelligence Scale, 4th Ed., in Technical and Interpretive Manual, 4th Ed., San Antonio: Pearson (2008); hereby incorporated by reference in its entirety), the California Verbal Learning Test II (CVLT) (Delis, D. C., Kramer, J. H., Kaplan, E., Ober, B. A. in CVLT-II Manual, San Antonio: The Psychological Corporation (2000); hereby incorporated by reference in its entirety), the Verbal Fluency Test (Connors Continuous Performance Test Computer II Program Version 5 Users Manual, Toronto: Multi-Health Systems, Inc. (2002); hereby incorporated by reference in its entirety), and the Connors Continuous Performance Test (J. Nervous Ment. Dis. 1985, 173(6), 353-357; hereby incorporated by reference in its entirety). • Videonystagmography (VNG) and rotary chair (RC) vestibular testing
Based on the observation of significant central findings on videonystagmography and rater-observed reduction in abnormal movements while on the active medication, the Subject was asked to return for 2 additional rounds of open-label testing, 5 and 9 weeks after conclusion of the formal study. The Subject resumed taking 4AP 10 mg twice daily immediately after the conclusion of the blinded testing.

subject with PCS [4] = assay: Neuro-optometric evaluation; type: in vivo, human; conditions: following treatment of 4AP
[5] = test system: cerebellar Purkinje cells; conditions: in vitro, literature; cited from earlier work
subject with PCS [6] = assay: Empiric clinical trial of 4AP, reported symptoms and side effects; type: in vivo, human
Text: The study Subject had persisting stress-induced episodes of weakness and dysequilibrium, along with DBN. A crude phenomenological similarity of these symptoms to EA2 was noted. DNA sequencing of Subject's CACNA1A gene was done; no abnormality was found. Given intractable, persisting, and incapacitating nature of Subject's symptoms and the absence of any therapeutic alternatives, an empiric clinical trial of 4AP was agreed upon. Given subject's history of nephrolithiasis, it was felt that 4AP would be less likely to cause significant adverse reactions than acetazolamide. Subject provided written informed consent.
The Subject was treated by oral administration of 4-AP, starting with a minimal dose of 5 mg. […] Treatment continued for about six months, at which point a wash-out period was initiated.
Side effects (initial blurring of vision, insomnia, and dyspepsia) were mild. Given these clinical results, a prospective, double blind case study was performed.

subject with PCS [7] = assay: Subjective symptom assessment, Rivermead Post-Concussion Questionnaire; type: in vivo, human
Description: as §1, §2

demyelinated axons = conditions: experimental and clinical settings, literature; cited from earlier work
subject with PCS [8] = assay: Neurofeedback evaluation; type: in vivo, human; conditions: following treatment of 4AP
subject with PCS [9] = assay: Balance and mobility assessed by Hi-Mat test; type: in vivo, human
Description: as §1, §2

[10] = session 5 1st Open: open-label 4AP 10 mg twice daily, 5 weeks after formal study
[11] = session 6 2nd Open: open-label 4AP 10 mg twice daily, 9 weeks after formal study

In the case of Nc1ccncc1 [4-AP, 4-Amino pyridine], the “Purkinje cell excitability, spontaneous activity or firing rate” value ([1]; models of episodic ataxia) is listed as “does not increase”, the “Functional consequence of treatment in EA2 mutant Purkinje cells” value ([1]; via blockage of potassium channels) is listed as “restoration of the precision of pacemaking” and the “CVLT-II immediate, percentile” value (subject with PCS [2]; session 4 Active: blinded, one week on 4-AP 10 mg twice daily, baseline 27, placebo 21, washout 65) is listed as 18 percentile. The “CVLT-II immediate, percentile” value (subject with PCS [2]; [10]) was 69 percentile, the “CVLT-II immediate, percentile” value (subject with PCS [2]; [11]) was 93 percentile and the “Downbeat nystagmus (DBN)” value (downbeat nystagmus (DBN)) was “relieve downbeat nystagmus”. The “Head left positioning, left beating non-fatiguing nystagmus” value (subject with PCS [3]; test 4 (Active, 4-AP 10 mg twice daily), tests 1-3: 6, 2, 2) was 4 degrees/second, the “Head left position, left beating non-fatiguing nystagmus” value (subject with PCS [3]; test 5 (1st open-label round, 4AP 10 mg twice daily)) was 2 degrees/second and the “Delay of onset of left beating nystagmus in left dix hallpike position” value (subject with PCS [3]; test 6 (2nd open-label round, 4AP 10 mg twice daily), immediate on tests 1-4) was 50 s. The “Down beating nystagmus with head tilted down” value (subject with PCS [3]; tests 1-4, including active phase) was “present”, the Overall neuro-optometric functioning (subject with PCS [4]) was “unexpectedly improved” and the “Excitability of cerebellar Purkinje cells” value [5] was “increase the excitability”. The “Side effects (initial blurring of vision, insomnia, and dyspepsia)” value (subject with PCS [6]; 10 mg twice daily) was “mild”, the “Symptoms reported by the Subject” value (subject with PCS [6]; 10 mg twice daily) was “significant reduction in all symptoms” and the “Symptoms reported by the Subject” value (subject with PCS [6]; oral, doses increased to 30 mg per day, lasted for the duration of treatment (about six months)) was “dramatic improvement in symptoms”. The “Adverse effects observed or reported within 3 hours of administration” value (subject with PCS [6]; oral, minimal starting dose of 5 mg) was “No visible adverse effects”, the “Symptom intensity after termination of 4-AP treatment” value (subject with PCS [6]; wash-out after about six months of treatment) was “rapid relapse of symptom intensity” and the Rivermead score (subject with PCS [7]; session 4 Active: blinded, one week on 4-AP 10 mg twice daily, baseline 43, placebo 24, washout 44) was 41. For the same molecule, the Rivermead score (subject with PCS [7]; [10]) was 21, the Rivermead score (subject with PCS [7]; [11]) was 7 and the “Conduction in demyelinated axons” value (demyelinated axons) was “improve conduction”. The “Neurofeedback parameters (neurosynchronization, restoration of brain activity)” value (subject with PCS [8]) was “dramatic and unexpected improvements”, the HiMat score (subject with PCS [9]; session 4 Active: blinded, one week on 4-AP 10 mg twice daily, baseline 18, placebo 28, washout 28) was 31 and the HiMat score (subject with PCS [9]; session 5 1st Open: open-label 4AP 10 mg twice daily, 5 weeks after conclusion of the formal study) was 32. It also gave a HiMat score (subject with PCS [9]; session 6 2nd Open: open-label 4AP 10 mg twice daily, 9 weeks after conclusion of the formal study) of 50.
